Here are results for ten compounds from ChEMBL document CHEMBL1201862, “PubChem BioAssay data set” (2004).

Some test systems named below: 786-0; A549; CAKI-1; HCT-116; HOP-62; MDA-MB-231; MDA-MB-435; MDA-N; MOLT-4; Malme-3M; NCI-H522; OVCAR-8; SF-268; SF-539; SN12C; SNB-19; UACC-62; UO-31; KM12; RPMI-8226.
Common to all, as to assay: growth of human tumour cells (NCI), 48 h

SMILES strings stand for the structures.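 Exposure lasted 48 hours, with cells grown in 96-well plates and compounds tested at five concentrations. GI50 is the concentration that inhibits growth by half.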 Calls of active or inactive are those of the source. Rule as the data show it: active = GI50 up to about 1.1 µM and inactive = higher. A value given as a limit tells only on which side of the number the result lay.

In the case of `Cc1cccc(/C=N/NC(=S)N2CCCC2)n1`, the GI50 in the test on 786-0 is 0.199 µM (active); in the test with A549 it was 0.514 µM (active); with CAKI-1, 0.197 µM (active); with HCT-116, 0.069 µM (active); with HOP-62, 0.209 µM (active); with MDA-MB-231, 0.133 µM (active). Moreover, the GI50 was 0.493 µM (active) in the test on MDA-MB-435; 0.417 µM (active) in the test with MDA-N; 0.0687 µM (active) in the test with MOLT-4; 0.0286 µM (active) in the test on Malme-3M; 0.0458 µM (active) in the test on NCI-H522; 0.324 µM (active) with OVCAR-8. For the same compound, the GI50 with SF-268 was 0.251 µM (active); in the test with SF-539, 0.479 µM (active); with SN12C, 0.247 µM (active); in the test on SNB-19 it was 2.82 µM (inactive); with UACC-62, 0.296 µM (active); in the test on UO-31 it was 0.297 µM (active).
`CCn1c(=O)c2c3ccc(OC(C)=O)cc3[nH]c2c2ccc(OC(C)=O)cc21`: the GI50 is 58.1 µM (inactive) in the test with 786-0; 64.7 µM (inactive) in the test with A549; 61.5 µM (inactive) in the test on CAKI-1; 15.5 µM (inactive) in the test on HCT-116; 58.1 µM (inactive) in the test with HOP-62; 34.7 µM (inactive) with KM12. Moreover, the GI50 in the test with MDA-MB-231 is 33.1 µM (inactive); in the test with MDA-MB-435, 41 µM (inactive); with MDA-N, 35.2 µM (inactive); in the test with MOLT-4 it was 17.6 µM (inactive); in the test on Malme-3M, 32.2 µM (inactive); in the test on NCI-H522, 37.2 µM (inactive). Further, the GI50 was 31.3 µM (inactive) in the test on OVCAR-8; 35.8 µM (inactive) with SF-268; 39 µM (inactive) in the test with SF-539; 32.7 µM (inactive) in the test on SN12C; 50.5 µM (inactive) with SNB-19; 24.1 µM (inactive) in the test with UACC-62. Moreover, in the test on UO-31, the GI50 is 44.1 µM (inactive).
For the compound `CN(CCc1ccc(Cl)c(Cl)c1)[C@H]1CCCC[C@H]1N1CCCC1`, the GI50 in the test with 786-0, in the test with A549, with CAKI-1, in the test with HCT-116, in the test with HOP-62 and with KM12 was > 100 µM (inactive) each time. In addition, the GI50 with MDA-MB-231, with MDA-MB-435, with MDA-N, in the test on MOLT-4, in the test on Malme-3M and in the test with NCI-H522 was > 100 µM (inactive) in each case. The GI50 with OVCAR-8, with RPMI-8226, in the test with SF-268, in the test on SN12C, in the test on SNB-19 and with UACC-62 was > 100 µM (inactive) throughout. Also, the GI50 in the test with UO-31 is > 100 µM (inactive).
Consider `COc1ccc(N2C(=O)C3c4[nH]c5ccc(F)cc5c4C4CCC(c5ccccc5)CC4C3C2=O)cc1` (stereo not given), for which the GI50 in the test with 786-0 was 3.56 µM (inactive); in the test with A549, 11.6 µM (inactive); in the test with CAKI-1, 19.8 µM (inactive); with HCT-116, 20.7 µM (inactive); in the test on HOP-62, 14.3 µM (inactive); with KM12, 20.7 µM (inactive). The GI50 was 15.3 µM (inactive) with MDA-MB-231; 16.6 µM (inactive) in the test on MDA-MB-435; 27.4 µM (inactive) in the test with MDA-N; 8.18 µM (inactive) in the test on MOLT-4; 16.1 µM (inactive) with Malme-3M; 13 µM (inactive) with NCI-H522. For the same compound, the GI50 was 17.8 µM (inactive) in the test on OVCAR-8; 32.8 µM (inactive) in the test on RPMI-8226; 5.81 µM (inactive) in the test with SF-268; 26.2 µM (inactive) in the test on SN12C; 11.1 µM (inactive) with SNB-19; 11.9 µM (inactive) in the test on UACC-62. For the same compound, in the test on UO-31, the GI50 is 21.4 µM (inactive).
For the compound `COc1ccc2[nH]c3c(c2c1)CCc1c(OC)cccc1-3`, the GI50 in the test on 786-0 was > 100 µM (inactive); in the test with A549 it was > 100 µM (inactive); in the test on CAKI-1, > 100 µM (inactive); in the test with HCT-116, > 100 µM (inactive); in the test with HOP-62, 53.8 µM (inactive); in the test with KM12, > 100 µM (inactive). The GI50 was > 100 µM (inactive) in the test on MDA-MB-231; > 100 µM (inactive) in the test on MDA-MB-435; > 100 µM (inactive) with MDA-N; 29.9 µM (inactive) in the test on MOLT-4; 75.2 µM (inactive) with Malme-3M; 87.1 µM (inactive) in the test with NCI-H522. The GI50 in the test with OVCAR-8 is > 100 µM (inactive); in the test with RPMI-8226, 51.9 µM (inactive); in the test on SF-268 it was > 100 µM (inactive); in the test with SN12C, > 100 µM (inactive); with SNB-19 it was > 100 µM (inactive); in the test with UACC-62 it was > 100 µM (inactive). For the same compound, the GI50 with UO-31 is > 100 µM (inactive).
Consider `c1cc(-c2ccc(-c3ccc(-c4ccc(-c5ccncc5)o4)cc3)o2)ccn1`, for which the GI50 in the test with 786-0 is 15.9 µM (inactive); in the test with A549 it was 18.4 µM (inactive); with CAKI-1, 21.4 µM (inactive); in the test on HCT-116, 16.1 µM (inactive); in the test on HOP-62 it was 22.1 µM (inactive); with KM12, 15.3 µM (inactive). Moreover, the GI50 in the test on MDA-MB-231 is 29 µM (inactive); in the test on MDA-MB-435, 15.5 µM (inactive); with MDA-N it was 16.7 µM (inactive); in the test on MOLT-4 it was 6.34 µM (inactive); in the test on Malme-3M it was 19.8 µM (inactive); in the test on NCI-H522, 15.3 µM (inactive). Besides, the GI50 with OVCAR-8 is 16.8 µM (inactive); in the test with SF-268, 20.7 µM (inactive); with SN12C, 22.4 µM (inactive); in the test with SNB-19 it was 18.5 µM (inactive); in the test with UACC-62, 17.9 µM (inactive); with UO-31, 21.5 µM (inactive).
As for `C=C1CC[C@@]2(OC1)OC1C[C@H]3[C@@H]4CC=C5C[C@@H](O)CC(OC6OCC(OC(=O)[C@@H](O)[C@@H](C)CC)C(OC(C)=O)C6OC6OC(C)C(O)C(O)C6O)[C@]5(C)[C@H]4CC[C@]3(C)C1[C@@H]2C` (stereo not given in full), the GI50 with 786-0 is 1.82 µM (inactive); in the test with A549, 2.21 µM (inactive); in the test on CAKI-1, 2.65 µM (inactive); with HCT-116, 1.65 µM (inactive); in the test on KM12, 2.14 µM (inactive); in the test on MDA-MB-231, 1.75 µM (inactive). The GI50 with MDA-MB-435 was 1.76 µM (inactive); with MDA-N it was 1.92 µM (inactive); with MOLT-4 it was 1.7 µM (inactive); in the test on Malme-3M, 3.84 µM (inactive); in the test on NCI-H522 it was 1.76 µM (inactive); in the test with OVCAR-8 it was 2.16 µM (inactive). Besides, the GI50 is 2.09 µM (inactive) with RPMI-8226; 2.06 µM (inactive) in the test with SF-268; 2.31 µM (inactive) with SF-539; 2.25 µM (inactive) in the test on SN12C; 1.96 µM (inactive) with SNB-19; 1.77 µM (inactive) in the test with UACC-62. The GI50 in the test with UO-31 is 2.4 µM (inactive).
As to `[N-]=[N+]=CC(=O)OC1CCOCC1`, the GI50 in the test with 786-0, in the test with CAKI-1, in the test with HCT-116, with HOP-62, with KM12 and with MDA-MB-231 was > 100 µM (inactive) throughout. The GI50 in the test on MDA-MB-435, in the test on MDA-N, with MOLT-4, in the test on Malme-3M, in the test on NCI-H522 and in the test with RPMI-8226 was > 100 µM (inactive) throughout. For the same compound, the GI50 in the test on SF-268, with SN12C, in the test on SNB-19, in the test on UACC-62 and in the test with UO-31 was > 100 µM (inactive) throughout.
Take `O=[N+]([O-])c1ccc2c(c1)n1c(N3CCCC3)[n+]3ccccc3c1c1c3ccccn3c(N3CCCC3)[n+]21.[O-][Cl+3]([O-])([O-])[O-].[O-][Cl+3]([O-])([O-])[O-]`: the GI50 in the test on 786-0, in the test with A549, with CAKI-1, with HCT-116, in the test with KM12 and in the test on MDA-MB-231 was > 100 µM (inactive) in each case. The GI50 with MDA-MB-435 is > 100 µM (inactive); in the test on MDA-N, > 100 µM (inactive); in the test on MOLT-4, 43.2 µM (inactive); with Malme-3M, 68.9 µM (inactive); with NCI-H522, 29 µM (inactive); in the test on OVCAR-8, > 100 µM (inactive). In addition, the GI50 in the test with RPMI-8226 was > 100 µM (inactive); in the test on SF-268, 17.5 µM (inactive); in the test on SF-539 it was 39.5 µM (inactive); in the test with SN12C it was 51.8 µM (inactive); in the test on SNB-19, 45 µM (inactive); with UACC-62 it was > 100 µM (inactive).
With `COc1ccc(-c2nc3cc(F)ccc3s2)cc1O`, the GI50 in the test on 786-0 is 18.9 µM (inactive); in the test with A549, 34.1 µM (inactive); with CAKI-1 it was 23.3 µM (inactive); with HCT-116 it was 27.4 µM (inactive); with KM12, 12.2 µM (inactive); in the test on MDA-MB-231, 39.6 µM (inactive). For the same compound, the GI50 is 56.1 µM (inactive) in the test with MDA-MB-435; 57.3 µM (inactive) in the test with MDA-N; > 100 µM (inactive) with MOLT-4; 35.1 µM (inactive) in the test on Malme-3M; 16.3 µM (inactive) in the test on NCI-H522; 26.5 µM (inactive) in the test with OVCAR-8. The GI50 is 17.6 µM (inactive) in the test with RPMI-8226; 28 µM (inactive) in the test with SF-268; 38.5 µM (inactive) in the test on SF-539; 84.3 µM (inactive) with SN12C; 61.7 µM (inactive) in the test on SNB-19; 30.7 µM (inactive) with UACC-62. For the same compound, the GI50 in the test with UO-31 was 30.8 µM (inactive).
